From patent US20240108601A1, “TREATMENT OF MENTAL DISORDERS” (GH Research Ireland Limited, priority 2022, published 2024)
Values joined by “and” are separate entries in the source; they are usually repeats but may differ in a detail not shown here. Equal values may be shown once. Read-outs that look alike come from different tables or passages of the source.

How the values were obtained:
[1] = In vitro binding of 5-MeO-DMT to plasma proteins, high throughput dialysis; assay type: in vitro ADME
Protocol: Following evaluation of the equilibration data, plasma protein binding was investigated at nominal concentrations of 0.1, 1 and 10 μM using a 4-hour dialysis time. […]

[2] = test system: patients with postpartum depression (PPD); experiment: Clinical trial of inhaled 5-MeO-DMT in postpartum depression; assay type: in vivo, human; conditions: for BIMF domain Adjustment score / BIMF domain Infant Care score: max 12; for BIMF domain Infant Care score: Day 0 12; for BIMF domain Management score: max 36; for BIMF domain Psychological Well-being score: max 60; for BIMF TOTAL score: possible total 120; for Time to clinical remission after administration: IDR 6 mg then 12 mg
Text: The patient completed all planned visit days.

[3] = test system: Salmonella typhimurium TA98, TA100, TA1535 and TA1537; experiment: Bacterial reverse mutation test; assay type: cell-based; conditions: up to 5000 μg/plate; with and without S-9
Protocol: (§1) These conditions included treatments at concentrations up to 5000 μg/plate (the maximum recommended concentration according to current regulatory guidelines), in the absence and in the presence of a rat liver metabolic activation system (S-9).

[4] = test system: Escherichia coli WP2 uvrA pKM101; experiment: Bacterial reverse mutation test; assay type: cell-based; conditions: up to 5000 μg/plate; with and without S-9
Protocol: as §1

[5] = LC-MS/MS of 5-MeO-DMT, bufotenine and 5-MIAA in urine, serum and breastmilk of lactating PPD patient; infant exposure estimates; conditions: for Breastmilk concentration / Serum concentration / Urine concentration: second patient
Text: When determining the potential impact of maternal drug administration on a breastfed infant, it is standard practice to calculate the Relative Infant Dose (RID) (Bennett, P. N., and L. J. Notarianni. “Risk from drugs in breast milk: an analysis by relative dose.” Br J Clin Pharmacol 42.5 (1996): P673-4). The RID is the dosage (in μg/kg/day) the infant is exposed to by the intake of breast milk, divided by the dosage (in μg/kg/day) the mother receives.
Using estimates for daily intake of breast milk and the number of feeds as well as the measured breast milk concentrations the exposure of the infant can be determined.
For example, a published estimate for daily intake of breast milk as a function of infant weight is 150 ml/kg/day. To model the exposure, it is assumed that an infant of 5 kg is fed three times over 24 hours, receiving 250 ml breast milk each time.
The second patient was lactating, and, per the clinical trial protocol, breastmilk samples were collected pre-dosing and at multiple timepoints after administration of the last dose. […] Similar analyses were carried out on patient serum and urine samples.

[6] = Pharmacokinetics of 5-MeO-DMT and bufotenine after single inhaled dose; assay type: in vivo, human; conditions: for Cmax: human, plasma, inhaled or intranasal, inhalation, n=8, read-out: Median Cmax
Protocol: Blood samples were obtained at 1; 2; 4; 7; 10; 15; 20; 30; 45 min and 1; 1.5; 2; 3; 4 hours after administration.
PK parameters were generated by algebraic analysis of the concentration versus time plots for each individual. The analysis was carried out using the software Phoenix WinNonlin 6.3.

[7] = second patient, Day 7 (visit on day 5)
[8] = female, human, breast milk, inhaled

## COc1ccc2[nH]cc(CCN(C)C)c2c1 [5-MeO-DMT]
[1]; human plasma
  fraction unbound at 4 h: 0.77 to 0.87
[1]; human, 0.1 μM, 4-hour dialysis, read-out: Free Fraction in human plasma
  fraction unbound at 4 h, 0.1 μM: 0.787
[1]; human, 1 μM, 4-hour dialysis, read-out: Free Fraction in human plasma
  fraction unbound at 4 h, 1 μM: 0.773
[1]; human, 10 μM, 4-hour dialysis, read-out: Free Fraction in human plasma
  fraction unbound at 4 h, 10 μM: 0.87
[2]; first patient
  BIMF TOTAL Δ (Day 7): 13
  BIMF domain Adjustment Δ (Day 7): 1
  BIMF domain Infant Care Δ (Day 7): 0
  BIMF domain Management Δ (Day 7): 5
  BIMF domain Mother-Child Interaction Δ (Day 7): 2
  BIMF domain Psychological Well-being Δ (Day 7): 9
  BIMF domain Self-Care Δ (Day 7): 4
  BIMF domain Social Support Δ (Day 7): 1
  Time to clinical remission after administration: ≤ 2 h
[2]; first patient, 12 mg
  PES score: 85.7
[2]; first patient, 2 hr
  Total MADRS improvement: 24
[2]; first patient, 2 hr, baseline 29
  Total MADRS score: 5
[2]; first patient, Day 1
  BPRS item score: 1
  MADRS item score: 0
  Total MADRS improvement: 29
[2]; first patient, Day 1, baseline 29
  Total MADRS score: 0
[2]; first patient, Day 7
  BIMF domain Adjustment % improvement: 20.00%
  BIMF domain Infant Care % improvement: 0.00%
  BIMF domain Management % improvement: 18% and 17.86%
  BIMF domain Mother-Child Interaction % improvement: 13.33%
  BIMF domain Psychological Well-being % improvement: 20.45%
  BIMF domain Self-Care % improvement: 44% and 44.44%
  BIMF domain Social Support % improvement: 5.88%
  BIMF total score improvement: 14%
  BPRS item score: 1
  Total MADRS improvement: 28
  BIMF domain Infant Care score: 12
[2]; first patient, Day 7, Day 0 5
  BIMF domain Adjustment score: 6
[2]; first patient, Day 7, Day 0 9, max 18
  BIMF domain Self-Care score: 13
[2]; first patient, Day 7, Day 0 15, max 18
  BIMF domain Mother-Child Interaction score: 17
[2]; first patient, Day 7, Day 0 17, max 18
  BIMF domain Social Support score: 18
[2]; first patient, Day 7, Day 0 28
  BIMF domain Management score: 33
[2]; first patient, Day 7, Day 0 44
  BIMF domain Psychological Well-being score: 53
[2]; first patient, Day 7, Day 0 92
  BIMF TOTAL score: 105
[2]; first patient, Day 7, baseline 29
  Total MADRS score: 1
[2]; first patient, Discharge
  BPRS item score: 1
[2]; first patient, cramping left abdominal pain and headache, Day 0
  Reported adverse events: mild, short-lasting and resolved spontaneously
[2]; first patient, nominal dose 6 mg
  PES score: 17.3
[2]; second patient
  BIMF TOTAL Δ (Day 7): 45
  BIMF domain Adjustment Δ (Day 7): 9
  BIMF domain Infant Care Δ (Day 7): 0
  BIMF domain Management Δ (Day 7): 13
  BIMF domain Mother-Child Interaction Δ (Day 7): 7
  BIMF domain Psychological Well-being Δ (Day 7): 27
  BIMF domain Self Care Δ (Day 7): 10
  BIMF domain Social Support Δ (Day 7): 3
  Time to clinical remission after administration: ≤ 2 h
[2]; second patient, 12 mg
  PES score: 94.7
[2]; second patient, 2 hr, baseline 41
  Total MADRS score: 5
[2]; second patient, 2 hrs
  Total MADRS improvement: 36
[2]; second patient, Day 1
  BPRS item score: 1
  MADRS item score: 0
  Total MADRS improvement: 41
[2]; second patient, Day 1, baseline 41
  Total MADRS score: 0
[2]; second patient, Day 7
  BIMF domain Adjustment % improvement: 450%
  BIMF domain Infant Care % improvement: 0%
  BIMF domain Management % improvement: 76%
  BIMF domain Mother-Child Interaction % improvement: 70%
  BIMF domain Psychological Well-being % improvement: 113%
  BIMF domain Self Care % improvement: 333%
  BIMF item score: 6 and 5 and 4
  BIMF total score improvement: over 40%
  BIMF domain Infant Care score: 12
[2]; [7]
  BPRS item score: 1
  MADRS item score: 0
  Total MADRS improvement: 41
[2]; second patient, Day 7 (visit on day 5), baseline 41
  Total MADRS score: 0
[2]; second patient, Day 7, Day 0 2
  BIMF domain Adjustment score: 11
[2]; second patient, Day 7, Day 0 3, max 18
  BIMF domain Self Care score: 13
[2]; second patient, Day 7, Day 0 10, max 18
  BIMF domain Mother-Child Interaction score: 17
[2]; second patient, Day 7, Day 0 11, max 18
  BIMF domain Social Support score: 14
[2]; second patient, Day 7, Day 0 17
  BIMF domain Management score: 30
[2]; second patient, Day 7, Day 0 24
  BIMF domain Psychological Well-being score: 51
[2]; second patient, Day 7, Day 0 59 (table)
  BIMF TOTAL score: 104
[2]; second patient, Discharge
  BPRS item score: 1
[2]; second patient, nominal dose 6 mg
  PES score: 1
[2]; second patient, vomiting Day 0, headache Day 5
  Reported adverse events: mild, short-lasting and resolved spontaneously
[3]
  Mutation induction: did not induce mutation
[4]
  Mutation induction: did not induce mutation
[5]; 5 kg infant, three feeds of 250 ml
  Daily Infant Dosage (DID) per kg: 0.0001385 mg/kg/day
[5]; [8]
  concentration at 1 h: 2.17 ng/mL
  concentration at 2.5 h: 0.561 ng/mL
  concentration at 8.5 h: 0.0421 ng/mL
[5]; female, human, serum, inhaled
  concentration at 1 h: 0.133 ng/mL
[5]; 1.0 hrs after last dose
  Breastmilk concentration: 2167 pg/mL
[5]; 2.5 hrs after last dose
  Serum concentration: BLQ (Below limit of quantification. The lower limit of quantification is 25 pg/ml for both 5-MeO-DMT and 5-MIAA in both serum and breastmilk; it is 25 pg/ml in urine for 5-MeO-DMT and 250 pg/ml for 5-MIAA in urine.)
[5]; 8.5 hrs after last dose
  Urine concentration: BLQ (Below limit of quantification. The lower limit of quantification is 25 pg/ml for both 5-MeO-DMT and 5-MIAA in both serum and breastmilk; it is 25 pg/ml in urine for 5-MeO-DMT and 250 pg/ml for 5-MIAA in urine.)
[5]; 24.0 hrs after last dose
  Breastmilk concentration: did not detect and BLG
  Serum concentration: BLQ (Below limit of quantification. The lower limit of quantification is 25 pg/ml for both 5-MeO-DMT and 5-MIAA in both serum and breastmilk; it is 25 pg/ml in urine for 5-MeO-DMT and 250 pg/ml for 5-MIAA in urine.)
  Urine concentration: BLQ (Below limit of quantification. The lower limit of quantification is 25 pg/ml for both 5-MeO-DMT and 5-MIAA in both serum and breastmilk; it is 25 pg/ml in urine for 5-MeO-DMT and 250 pg/ml for 5-MIAA in urine.)
[5]; 120.0 hrs after last dose
  Breastmilk concentration: BLQ (Below limit of quantification. The lower limit of quantification is 25 pg/ml for both 5-MeO-DMT and 5-MIAA in both serum and breastmilk; it is 25 pg/ml in urine for 5-MeO-DMT and 250 pg/ml for 5-MIAA in urine.)
  Serum concentration: BLQ (Below limit of quantification. The lower limit of quantification is 25 pg/ml for both 5-MeO-DMT and 5-MIAA in both serum and breastmilk; it is 25 pg/ml in urine for 5-MeO-DMT and 250 pg/ml for 5-MIAA in urine.)
  Urine concentration: BLQ (Below limit of quantification. The lower limit of quantification is 25 pg/ml for both 5-MeO-DMT and 5-MIAA in both serum and breastmilk; it is 25 pg/ml in urine for 5-MeO-DMT and 250 pg/ml for 5-MIAA in urine.)
[5]; −24.0 hrs (pre-dosing)
  Breastmilk concentration: BLQ (Below limit of quantification. The lower limit of quantification is 25 pg/ml for both 5-MeO-DMT and 5-MIAA in both serum and breastmilk; it is 25 pg/ml in urine for 5-MeO-DMT and 250 pg/ml for 5-MIAA in urine.)
  Serum concentration: BLQ (Below limit of quantification. The lower limit of quantification is 25 pg/ml for both 5-MeO-DMT and 5-MIAA in both serum and breastmilk; it is 25 pg/ml in urine for 5-MeO-DMT and 250 pg/ml for 5-MIAA in urine.)
  Urine concentration: BLQ (Below limit of quantification. The lower limit of quantification is 25 pg/ml for both 5-MeO-DMT and 5-MIAA in both serum and breastmilk; it is 25 pg/ml in urine for 5-MeO-DMT and 250 pg/ml for 5-MIAA in urine.)
[6]; 3 hours after inhalation, 6, 12, 18 mg
  Detectability in plasma: no longer detectable
[6]; 6 mg group
  Cmax: 11.8 ng/mL
[6]; 12 mg group
  Cmax: 22.9 ng/mL
[6]; 18 mg group
  Cmax: 38.5 ng/mL
[6]; repeated administration within 1 to 4 hours
  Accumulation upon repeated administration: No accumulation
